Results taken from patent US11518750B2, “3-methylideneoxan-4-one compounds and substituted derivatives thereof as inhibitors of telomerase” (NORTHWESTERN UNIVERSITY, priority 2019, dated 2022).

Tests used:
[1] = biological target: T1, Human telomerase purified from telomerase-overexpressing HEK293T cells (Homo sapiens, UniProt O14746); experiment: Direct (non-PCR) primer extension telomerase activity assay, purified telomerase; type: biochemical; conditions: purified telomerase
T1 construct: made in house; host or cells: HEK293T (telomerase-overexpressing)
Method: Primer-Extension Telomerase Activity Assays. […] ID NO: 1) (2 μM)].

VA-13 = experiment: Cell viability, telomerase-negative cells; type: cell-based; conditions: VA-13, up to 100 μM
[2] = Schiff-base measurement with glycine; type: physicochemical; conditions: incubation with glycine
Method: Schiff-Base Measurement. A 1 mM stock solution of NU-1 in DMSO-d6 was added to a solution of 5 mM solution of glycine in D2O in an NMR tube. The mixture was analyzed by ^1H NMR over 48 hours to analyze formation of Schiff-bases with the ketone of NU-1.

Plasma stability assay = type: in vitro ADME; conditions: in words
Saos-2 = experiment: Cell viability, telomerase-negative cells; type: cell-based; conditions: Saos-2, up to 100 μM
MCF7 cells = experiment: Cell viability (CellTiter-Glo), telomerase-positive cells; type: cell-based, human; conditions: Homo sapiens, read-out: IC50, loss of viability
Method: Cell Viability Measurements. MCF-7, HeLa, MDA-MB231 and A549 cells were cultured in DMEM media supplemented with 10% Fetal Bovine Serum (FBS), 1% pen/strep and with 5% CO2 and 37° C. Cells were plated in 96 well plates and allowed to attach for 24 h. Media was removed, and fresh media containing various concentrations of compound was added, and the plate was incubated for 24 h. The plate was removed from the incubator and allowed to equilibrate to room temperature for 30 min. 50 μl of freshly prepared CellTiter-Glo (Promega) reagent was added, and the plate was mixed on an orbital shaker for 10 min to induce cell lysis and stabilize luminescent signal. The luminescence was recorded on a PerkinElmer Enspire multimode plate reader.

MCF-7 proteome = experiment: Competitive gel imaging with 5-iodoacetamido-fluorescein (competitive ABPP); type: binding, human; conditions: 10 nM to 100 μM, 1 hr, then fluorescein-iodoacetamide 10 μM
Method: Competitive Gel Image Analysis. MCF-7 cells were cultured in DMEM media supplemented with 10% Fetal Bovine Serum (FBS), 1% pen/strep and with 5% CO2 and 37° C. Cells were plated cultured for 3 days. Flasks were rinsed twice with PBS and treated with 0.05% trypsin-EDTA (Thermo Fisher) to detach cells. The cell suspension was washed twice in PBS and the cell pellet was resuspended in 200 μl of M-PER extraction reagent (Thermo Fisher)/10^6 cells, and incubated for 30 min. Cell extracts were transferred to microcentrifuge tubes, 200 μl/tube, and centrifuged at 12,000×g for 20 min to remove cell debris. The corresponding lysate was then further diluted to a total protein concentration of 2 mg/mL as measured by Nanodrop (Thermo Fisher). 48 μL of MCF-7 lysate was added to twelve microcentrifuge tubes (six per compound), followed by treatment of cell lysate with 1 μL solution of NU-1/chrolactomycin (equating to doses ranging from 10 nM to 100 μM). The samples were incubated for 1 hr, followed by addition of 1 μl of 5-iodoacetamido-fluorescein to a final concentration of 10 μM. The samples were again incubated for 1 hr, followed by quenching the reaction with 15 μL NuPAGE LDS Sample Buffer (4×). […]

[3] = biological target: T2, endogenous telomerase in MCF-7 and A549 cells (Homo sapiens, UniProt O14746); experiment: Endogenous telomerase activity after cell treatment (primer extension); type: cell-based; conditions: 10 μM, 24 h
T2 construct: endogenous in cells; host or cells: MCF-7 and A549
Method: For FIG. 4C, the control or treated cells were prepared and collected as pellets of 5×10^6 cells each at NW and pellets were shipped to CMRI on dry ice. Frozen cell pellets were thawed on wet ice and suspended in 1 mL telomerase buffer supplemented with 1 mM PMSF. Endogenous telomerase was immunopurified and assayed as described.

[4] = N-acetyl serine and N-acetyl lysine reactivity; type: physicochemical; conditions: HPLC
Method: N-Acetyl Cysteine, N-Acetyl Lysine and N-Acetyl Serine Kinetic Studies. Assay was conducted as described with minor modifications.^81-84 Briefly, a 1 mM stock solution of NU-1 with internal standard (phenacetin) in DMSO was added to a 50 mM solution of either N-acetyl cysteine, N-acetyl lysine or N-acetyl serine in 67 mM phosphate buffer (pH 7.4), as well as added to a solution of 67 mM phosphate buffer (pH 7.4) control. Samples were taken every 2 min for 2 h and quenched immediately with MeOH and centrifuged upon sampling. Samples were placed on a Waters Acquity UPLC-MS system and measured for the ratio of NU-1 to internal standard intensity to calculate the amount of NU-1 present at each time point relative to the amount of NU-1 at the first injection of the compound in buffer. Assay was conducted in triplicate.

CYP1A2 = biological target: T3, CYP1A2 (Homo sapiens, UniProt P05177); experiment: CYP450 inhibition assay; type: in vitro ADME; conditions: in words
T3 construct: purchased Thermo Fisher
T3 sequence (P05177 1-516): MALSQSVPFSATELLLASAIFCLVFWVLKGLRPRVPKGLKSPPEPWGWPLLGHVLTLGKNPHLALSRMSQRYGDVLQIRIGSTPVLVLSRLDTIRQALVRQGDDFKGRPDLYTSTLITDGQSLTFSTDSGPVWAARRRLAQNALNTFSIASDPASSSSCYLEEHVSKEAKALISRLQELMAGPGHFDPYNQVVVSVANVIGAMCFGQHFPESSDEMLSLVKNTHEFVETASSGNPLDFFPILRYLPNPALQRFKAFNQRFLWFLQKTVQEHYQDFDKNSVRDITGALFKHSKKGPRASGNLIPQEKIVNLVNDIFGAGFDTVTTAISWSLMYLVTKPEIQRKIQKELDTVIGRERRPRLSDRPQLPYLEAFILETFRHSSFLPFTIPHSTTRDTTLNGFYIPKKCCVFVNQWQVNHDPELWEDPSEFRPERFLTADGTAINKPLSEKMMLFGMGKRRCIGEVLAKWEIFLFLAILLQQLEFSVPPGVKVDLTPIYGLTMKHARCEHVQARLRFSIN
Method: CYP450 Inhibition Assay. Assay was conducted using the commercially available Vivid CYP1A2 Screening Kit (Thermo Fisher) according to the manufacturer's protocol. α-napthoflavone and DMSO were used as a positive and negative control respectively based on the manufacturer's protocol.

T1 sequence (O14746 whole entry): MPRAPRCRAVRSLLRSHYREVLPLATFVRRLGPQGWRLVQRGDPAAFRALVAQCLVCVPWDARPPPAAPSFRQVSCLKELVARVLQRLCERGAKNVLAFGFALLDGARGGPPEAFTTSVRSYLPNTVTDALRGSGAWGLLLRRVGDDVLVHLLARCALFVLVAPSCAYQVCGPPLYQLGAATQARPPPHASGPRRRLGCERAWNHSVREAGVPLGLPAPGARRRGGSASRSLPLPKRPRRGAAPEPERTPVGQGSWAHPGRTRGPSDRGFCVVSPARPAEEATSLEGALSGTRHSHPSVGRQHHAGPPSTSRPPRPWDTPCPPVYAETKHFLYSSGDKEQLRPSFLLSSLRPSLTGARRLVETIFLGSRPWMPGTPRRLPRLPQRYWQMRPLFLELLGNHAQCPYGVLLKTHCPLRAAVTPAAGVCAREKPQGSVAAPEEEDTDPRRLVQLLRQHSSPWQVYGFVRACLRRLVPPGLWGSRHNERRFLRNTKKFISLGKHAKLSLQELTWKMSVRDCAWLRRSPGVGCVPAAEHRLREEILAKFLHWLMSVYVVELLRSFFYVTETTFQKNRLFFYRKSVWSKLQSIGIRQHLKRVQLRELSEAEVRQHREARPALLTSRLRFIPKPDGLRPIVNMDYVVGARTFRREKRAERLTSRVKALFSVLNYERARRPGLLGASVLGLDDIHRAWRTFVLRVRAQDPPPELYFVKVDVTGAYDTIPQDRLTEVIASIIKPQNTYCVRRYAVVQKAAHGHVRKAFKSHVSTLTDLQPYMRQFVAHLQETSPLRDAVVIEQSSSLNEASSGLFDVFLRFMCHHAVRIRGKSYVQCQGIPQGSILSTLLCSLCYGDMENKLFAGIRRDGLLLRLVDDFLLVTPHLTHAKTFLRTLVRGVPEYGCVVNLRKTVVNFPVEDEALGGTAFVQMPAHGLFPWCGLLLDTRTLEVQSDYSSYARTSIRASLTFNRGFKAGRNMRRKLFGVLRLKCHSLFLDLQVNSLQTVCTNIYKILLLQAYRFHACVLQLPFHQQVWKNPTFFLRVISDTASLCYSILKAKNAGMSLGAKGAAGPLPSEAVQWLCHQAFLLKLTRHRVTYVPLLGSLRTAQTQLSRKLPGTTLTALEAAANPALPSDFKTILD
T1 sequence (O60832 whole entry partner): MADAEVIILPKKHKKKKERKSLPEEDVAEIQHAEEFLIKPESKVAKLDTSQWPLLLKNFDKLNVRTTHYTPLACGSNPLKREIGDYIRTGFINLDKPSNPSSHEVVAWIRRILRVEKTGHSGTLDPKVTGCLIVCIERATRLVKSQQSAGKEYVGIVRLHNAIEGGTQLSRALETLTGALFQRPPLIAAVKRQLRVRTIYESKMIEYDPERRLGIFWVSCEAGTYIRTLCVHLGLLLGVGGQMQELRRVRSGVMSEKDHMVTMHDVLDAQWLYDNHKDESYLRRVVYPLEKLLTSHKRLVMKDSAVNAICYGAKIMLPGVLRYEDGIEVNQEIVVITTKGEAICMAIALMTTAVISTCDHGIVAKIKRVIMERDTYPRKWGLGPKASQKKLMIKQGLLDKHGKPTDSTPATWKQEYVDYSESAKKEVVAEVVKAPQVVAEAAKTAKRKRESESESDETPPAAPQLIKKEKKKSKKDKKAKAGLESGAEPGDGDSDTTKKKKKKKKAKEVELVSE
T1 sequence (Q9NPE3 whole entry partner): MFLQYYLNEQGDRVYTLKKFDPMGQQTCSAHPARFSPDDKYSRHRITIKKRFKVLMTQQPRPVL
T1 sequence (Q9NX24 whole entry partner): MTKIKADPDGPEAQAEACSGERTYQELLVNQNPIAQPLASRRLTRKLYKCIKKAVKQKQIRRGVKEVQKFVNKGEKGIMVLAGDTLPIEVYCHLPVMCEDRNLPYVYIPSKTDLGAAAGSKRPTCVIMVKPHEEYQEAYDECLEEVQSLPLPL
T1 sequence (Q9NY12 whole entry partner): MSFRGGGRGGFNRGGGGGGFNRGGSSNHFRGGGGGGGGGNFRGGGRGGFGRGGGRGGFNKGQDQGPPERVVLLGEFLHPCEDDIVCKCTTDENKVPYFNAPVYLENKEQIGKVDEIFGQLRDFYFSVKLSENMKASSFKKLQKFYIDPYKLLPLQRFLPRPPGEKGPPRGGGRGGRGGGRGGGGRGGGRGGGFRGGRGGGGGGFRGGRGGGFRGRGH
T2 sequence (O14746 whole entry): as the sequence (O14746 whole entry) above
T2 sequence (O60832 whole entry partner): as the sequence (O60832 whole entry partner) above
T2 sequence (Q9NPE3 whole entry partner): as the sequence (Q9NPE3 whole entry partner) above
T2 sequence (Q9NX24 whole entry partner): as the sequence (Q9NX24 whole entry partner) above
T2 sequence (Q9NY12 whole entry partner): as the sequence (Q9NY12 whole entry partner) above
T2 sequence (Q9BUR4 whole entry partner): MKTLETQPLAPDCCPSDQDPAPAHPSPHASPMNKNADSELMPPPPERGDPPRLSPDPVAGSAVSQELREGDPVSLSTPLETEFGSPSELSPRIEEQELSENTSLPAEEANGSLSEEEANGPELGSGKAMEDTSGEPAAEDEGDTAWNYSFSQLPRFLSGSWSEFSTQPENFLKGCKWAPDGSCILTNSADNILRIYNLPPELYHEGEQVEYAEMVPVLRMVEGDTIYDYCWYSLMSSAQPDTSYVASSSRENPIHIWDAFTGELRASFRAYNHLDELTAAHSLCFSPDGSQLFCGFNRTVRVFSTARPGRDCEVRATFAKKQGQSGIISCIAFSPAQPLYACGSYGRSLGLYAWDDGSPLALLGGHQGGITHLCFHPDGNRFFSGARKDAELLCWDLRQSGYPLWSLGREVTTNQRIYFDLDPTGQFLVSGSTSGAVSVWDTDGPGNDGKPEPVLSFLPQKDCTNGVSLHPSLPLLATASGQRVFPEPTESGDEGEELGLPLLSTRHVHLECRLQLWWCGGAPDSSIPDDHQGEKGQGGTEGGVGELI

time to complete inhibition ([1]; 100 μM): ~6 h
inhibition of telomere repeat synthesis ([1]; in words): low-micromolar range
ketone-Schiff base formation [2]: no ketone-Schiff base formation
plasma stability (Plasma stability assay): satisfactory performance
IC50 (MCF7 cells): 27 µM
endogenous telomerase activity [3]: completely eliminated
amino acid adducts [4]: No amino acid adducts were found
CYP450 inhibition profile (CYP1A2): favorable
Compound: C=C1C(=O)[C@](C)(C(=O)OC)[C@H](CCc2cn(Cc3ccc(F)cc3F)nn2)O[C@@H]1C [NU-1, methyl (2S,3R,6R)-2-(2-(1-(2,4-difluorobenzyl)-1H-1,2,3-triazol-4-yl)ethyl)-3,6-dimethyl-5 methylene-4-oxotetrahydro-2H-pyran-3-carboxylate]
effect on viability (VA-13): did not affect viability
effect on viability (Saos-2): did not affect viability
off-target protein labeling (loss of protein banding) (MCF-7 proteome): minimal loss of protein banding and streaking
